Active and inactive are the calls of the source. The calls are words filed in the database; no cut-off is given here.

The target of experiment [1] is Norepinephrine transporter (Rattus norvegicus, UniProt Q9WTR4). In words: Displacement of [3H]-nisoxetine from NET in Sprague-Dawley rat brain prefrontal cortex incubated for 180 mins by radioligand binding assay. The experiment is classed as tissue-based. In general terms: Displacement assays read how much labelled ligand stays bound in the presence of the test substance.
Norepinephrine transporter, sequence (Q9WTR4 whole entry): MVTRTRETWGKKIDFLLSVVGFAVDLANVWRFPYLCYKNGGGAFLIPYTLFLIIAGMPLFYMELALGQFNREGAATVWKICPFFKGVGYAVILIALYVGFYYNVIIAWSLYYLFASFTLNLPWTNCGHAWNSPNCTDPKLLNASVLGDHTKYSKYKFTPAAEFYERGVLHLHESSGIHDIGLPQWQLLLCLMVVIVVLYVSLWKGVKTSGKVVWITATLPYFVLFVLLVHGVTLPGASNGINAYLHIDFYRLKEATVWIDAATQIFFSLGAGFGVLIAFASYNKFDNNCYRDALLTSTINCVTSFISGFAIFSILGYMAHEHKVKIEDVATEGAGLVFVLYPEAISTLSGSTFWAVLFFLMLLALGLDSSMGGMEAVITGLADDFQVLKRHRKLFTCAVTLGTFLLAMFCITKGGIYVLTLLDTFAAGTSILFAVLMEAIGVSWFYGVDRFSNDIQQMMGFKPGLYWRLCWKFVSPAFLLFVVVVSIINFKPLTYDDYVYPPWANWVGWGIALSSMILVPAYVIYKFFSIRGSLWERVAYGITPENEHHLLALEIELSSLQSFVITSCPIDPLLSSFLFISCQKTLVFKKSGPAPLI

Experiment [2] addresses Sodium-dependent dopamine transporter (Rattus norvegicus, UniProt P23977). In words: Displacement of [3H]-WIN 3542875 from DAT in Sprague-Dawley rat brain striatum incubated for 120 mins by radioligand binding assay. The class given is tissue-based.
Experiment [3] deals with Sodium-dependent serotonin transporter (Rattus norvegicus, UniProt P31652). In words: Displacement of [3H]-citalopram from SERT in Sprague-Dawley rat brainstem incubated for 60 mins by radioligand binding assay. The class given is tissue-based.
Sodium-dependent serotonin transporter, sequence (P31652 whole entry): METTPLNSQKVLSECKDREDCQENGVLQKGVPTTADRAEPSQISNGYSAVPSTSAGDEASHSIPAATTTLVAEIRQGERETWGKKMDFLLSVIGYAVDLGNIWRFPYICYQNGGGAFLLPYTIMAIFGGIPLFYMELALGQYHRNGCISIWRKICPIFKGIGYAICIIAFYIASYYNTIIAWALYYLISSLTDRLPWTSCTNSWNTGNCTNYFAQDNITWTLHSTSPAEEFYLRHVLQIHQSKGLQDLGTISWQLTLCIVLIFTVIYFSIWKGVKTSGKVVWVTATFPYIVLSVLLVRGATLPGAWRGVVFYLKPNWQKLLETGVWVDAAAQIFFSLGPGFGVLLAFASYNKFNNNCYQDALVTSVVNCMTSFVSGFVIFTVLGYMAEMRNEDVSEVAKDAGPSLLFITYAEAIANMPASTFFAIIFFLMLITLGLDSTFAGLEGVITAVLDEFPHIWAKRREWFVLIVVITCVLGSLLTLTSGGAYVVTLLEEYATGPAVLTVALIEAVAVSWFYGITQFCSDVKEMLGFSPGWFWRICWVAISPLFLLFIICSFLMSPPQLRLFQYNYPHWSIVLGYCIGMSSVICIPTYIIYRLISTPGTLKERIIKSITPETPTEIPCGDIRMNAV
For experiment [4], the species on record is Rattus norvegicus. In words: Selectivity index, ratio of Ki for displacement of [3H]-citalopram from SERT in Sprague-Dawley rat brainstem to Ki for Displacement of [3H]-nisoxetine from NET in Sprague-Dawley rat brain prefrontal cortex.
The species named for experiment [5] is Rattus norvegicus. In words: Selectivity index, ratio of Ki for Displacement of [3H]-WIN 3542875 from DAT in Sprague-Dawley rat brain striatum to Ki for Displacement of [3H]-nisoxetine from NET in Sprague-Dawley rat brain prefrontal cortex.
The target of experiment [6] is Sodium-dependent noradrenaline transporter (Homo sapiens) (UniProt P23975). Nature of the experiment: Binding affinity to human NET expressed in HEK293 cells assessed as fluorescence increase at plasma membrane at 1 to 10 nM incubated for 10 mins by laser scanning microscopy. Conditions: dose 1-10 nM, DDE = dose-dependent effect.
Sodium-dependent noradrenaline transporter (Homo sapiens), sequence (P23975 whole entry): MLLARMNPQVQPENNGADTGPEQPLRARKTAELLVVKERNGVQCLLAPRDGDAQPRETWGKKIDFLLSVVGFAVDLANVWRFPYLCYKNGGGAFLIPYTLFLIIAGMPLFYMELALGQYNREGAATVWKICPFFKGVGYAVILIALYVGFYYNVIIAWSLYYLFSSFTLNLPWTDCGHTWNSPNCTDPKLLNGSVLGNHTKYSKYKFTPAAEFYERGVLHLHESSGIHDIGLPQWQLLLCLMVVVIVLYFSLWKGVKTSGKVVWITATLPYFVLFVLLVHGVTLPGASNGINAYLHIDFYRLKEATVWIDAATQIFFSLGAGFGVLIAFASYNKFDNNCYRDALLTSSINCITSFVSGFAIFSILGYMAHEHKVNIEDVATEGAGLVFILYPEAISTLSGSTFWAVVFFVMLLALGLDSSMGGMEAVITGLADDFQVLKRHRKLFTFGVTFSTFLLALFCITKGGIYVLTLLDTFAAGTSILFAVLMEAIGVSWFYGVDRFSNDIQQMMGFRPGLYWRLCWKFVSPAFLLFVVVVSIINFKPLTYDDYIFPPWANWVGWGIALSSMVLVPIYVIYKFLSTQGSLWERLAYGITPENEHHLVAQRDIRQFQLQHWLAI
Experiment [7] shares this target. Nature of the experiment: Binding affinity to YFP-tagged human NET expressed in HEK293 cells assessed as fluorescence increase at plasma membrane at 10 nM incubated for 1 to 20 mins by laser scanning microscopy. Conditions: time 1-20 min, TDE = time-dependent effect.
Experiment [8] deals with Sodium-dependent serotonin transporter (Homo sapiens) (UniProt P31645). In words: Binding affinity to human SERT expressed in HEK293 cells at 10 nM incubated for 20 mins by laser scanning microscopy. The experiment is classed as cell-based.
Sodium-dependent serotonin transporter (Homo sapiens), sequence (P31645 whole entry, looked up): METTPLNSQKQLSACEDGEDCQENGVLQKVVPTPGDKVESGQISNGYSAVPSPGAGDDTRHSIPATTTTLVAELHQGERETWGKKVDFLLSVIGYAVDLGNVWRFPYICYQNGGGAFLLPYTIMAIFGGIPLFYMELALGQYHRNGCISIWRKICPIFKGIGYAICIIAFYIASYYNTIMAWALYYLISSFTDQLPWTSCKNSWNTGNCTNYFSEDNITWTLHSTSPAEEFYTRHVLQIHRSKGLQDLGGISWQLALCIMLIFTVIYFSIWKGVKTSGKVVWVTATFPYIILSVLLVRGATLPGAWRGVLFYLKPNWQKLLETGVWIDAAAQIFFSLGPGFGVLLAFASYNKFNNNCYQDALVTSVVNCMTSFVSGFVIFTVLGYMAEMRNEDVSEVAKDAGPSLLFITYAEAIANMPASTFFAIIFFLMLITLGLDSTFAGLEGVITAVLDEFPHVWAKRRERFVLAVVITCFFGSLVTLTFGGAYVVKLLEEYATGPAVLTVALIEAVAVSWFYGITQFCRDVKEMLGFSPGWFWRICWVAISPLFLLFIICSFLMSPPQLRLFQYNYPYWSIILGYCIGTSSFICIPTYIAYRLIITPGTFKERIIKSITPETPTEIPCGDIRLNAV

Sodium-dependent dopamine transporter, sequence (P23977 whole entry): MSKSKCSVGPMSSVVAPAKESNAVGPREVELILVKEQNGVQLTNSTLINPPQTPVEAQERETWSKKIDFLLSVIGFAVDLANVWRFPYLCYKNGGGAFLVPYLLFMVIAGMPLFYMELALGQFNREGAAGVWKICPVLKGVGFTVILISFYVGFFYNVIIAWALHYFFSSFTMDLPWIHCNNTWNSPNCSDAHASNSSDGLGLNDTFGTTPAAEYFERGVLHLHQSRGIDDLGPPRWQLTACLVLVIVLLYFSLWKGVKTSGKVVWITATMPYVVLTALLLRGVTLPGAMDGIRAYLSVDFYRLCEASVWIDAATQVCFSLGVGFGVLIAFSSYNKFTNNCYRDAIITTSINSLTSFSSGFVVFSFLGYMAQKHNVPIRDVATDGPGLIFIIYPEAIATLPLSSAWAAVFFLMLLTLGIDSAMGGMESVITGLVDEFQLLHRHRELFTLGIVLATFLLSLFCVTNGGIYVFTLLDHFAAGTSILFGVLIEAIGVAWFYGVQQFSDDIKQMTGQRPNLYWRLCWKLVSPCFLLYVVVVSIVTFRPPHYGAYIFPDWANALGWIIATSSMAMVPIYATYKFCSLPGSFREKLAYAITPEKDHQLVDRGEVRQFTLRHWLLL

In general, Ki refers to the dissociation constant of the complex between target and ligand, obtained from inhibition or displacement. A low value points to tighter binding. As for `CCN(CC)c1ccc2c(-c3ccc(S(=O)(=O)NCCCCCC(=O)NCCNCCCC4(c5ccccc5)OC(C)(C)c5ccccc54)cc3S(=O)(=O)[O-])c3ccc(=[N+](CC)CC)cc-3oc2c1` (stereo not given), the Ki in experiment [1] was more than 10000 nM; in experiment [2], 4870 nM; in experiment [3], more than 10000 nM.

As to `CCN(CC)c1ccc2c(-c3ccc(S(=O)(=O)NCCCCCC(=O)NCCN4C5CCC4[C@@H](C(=O)OC)[C@@H](c4ccc(Cl)c(Cl)c4)C5)cc3S(=O)(=O)[O-])c3ccc(=[N+](CC)CC)cc-3oc2c1` (stereo not given in full), the figures for the Ki in experiment [1], in experiment [2] and in experiment [3] were 79 nM, 17 nM and 16 nM, respectively.

For the compound `CCN(CC)c1ccc2c(-c3ccc(S(=O)(=O)NCCCCCC(=O)NCc4ccc5c(c4)C(C)(C)OC5(CCCNC)c4ccccc4)cc3S(=O)(=O)[O-])c3ccc(=[N+](CC)CC)cc-3oc2c1` (stereo not given), the Ki in experiment [1] is more than 10000 nM; in experiment [2], 964 nM; in experiment [3], 1140 nM.

With `CNCCCC1(c2ccccc2)OC(C)(C)c2ccccc21` (stereo not given) [TALOPRAM], the Ki is 4.5 nM in experiment [1], more than 10000 nM in experiment [2] and 795 nM in experiment [3].

As to `CCN(CC)c1ccc2c(-c3ccc(S(=O)(=O)NCCCCCC(=O)NCc4cccc(C(CCNC)Oc5ccccc5OC)c4)cc3S(=O)(=O)[O-])c3ccc(=[N+](CC)CC)cc-3oc2c1` (stereo not given), the values for the Ki in experiment [1], in experiment [2] and in experiment [3] were 43 nM, 1540 nM and 785 nM, respectively. Moreover, the Ratio Ki in the experiment listed under Rattus norvegicus [4] amounted to 18; in the experiment listed under Rattus norvegicus [5], 36. Also, the Activity entry is “Dde” in experiment [6] and “Tde” in experiment [7]. Besides, the result in experiment [8] was Active.

The record behind these values is ChEMBL document CHEMBL5136963 (RSC Med Chem, 2021).
